This is an account of results in patent publication US20060229299A1, “5ht2c Receptor antagonists in the treatment of schizophrenia” (priority 2003, published 2006).

Structures are written as SMILES. Read-outs that look alike come from different tables or passages of the source.

Data set [1] concerns the target 5-HT2A receptor (Homo sapiens, UniProt P28223). As to conditions: Table 3; expressed as pKi or pKd values; known affinities; cited from earlier work.
Data set [2] concerns the target D2 receptor (Homo sapiens, UniProt P14416). As to conditions: Table 3; expressed as pKi or pKd values; known affinities; cited from earlier work.
Data set [3] relates to 5-HT2C receptor relative to 5-HT2A and D2 receptors. Description: Relative 5-HT2C affinity (formula I, sum of 5-HT2C/5-HT2A and 5-HT2C/D2 affinity ratios).
Data set [4] deals with α1-adrenoceptor. As to conditions: human, expressed as KD; cited from earlier work.
Details of data set [5]: key: 1-high; 2-medium; 3-low probability. As to conditions: Table 4A; grading of probability from literature reports; cited from earlier work.
Data set [6] deals with T1, 5-HT2C receptor (Homo sapiens, UniProt P28335).
T1 sequence (P28335 33-458): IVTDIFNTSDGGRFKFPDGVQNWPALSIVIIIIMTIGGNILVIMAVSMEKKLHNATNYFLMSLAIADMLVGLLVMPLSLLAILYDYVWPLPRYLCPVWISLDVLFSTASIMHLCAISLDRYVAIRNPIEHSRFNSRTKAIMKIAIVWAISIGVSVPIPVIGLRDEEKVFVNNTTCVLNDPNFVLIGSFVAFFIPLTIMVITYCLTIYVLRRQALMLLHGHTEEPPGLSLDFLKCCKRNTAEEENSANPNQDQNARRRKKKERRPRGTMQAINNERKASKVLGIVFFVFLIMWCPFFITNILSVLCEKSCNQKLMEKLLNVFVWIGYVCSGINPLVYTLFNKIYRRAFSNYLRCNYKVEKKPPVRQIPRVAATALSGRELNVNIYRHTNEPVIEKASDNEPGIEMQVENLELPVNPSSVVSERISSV
As to conditions: Table 3; expressed as pKi or pKd values; known affinities; cited from earlier work.

The target of data set [7] is T2, 5-HT1A receptor (Rattus norvegicus, UniProt P19327).
T2 sequence (P19327 1-422): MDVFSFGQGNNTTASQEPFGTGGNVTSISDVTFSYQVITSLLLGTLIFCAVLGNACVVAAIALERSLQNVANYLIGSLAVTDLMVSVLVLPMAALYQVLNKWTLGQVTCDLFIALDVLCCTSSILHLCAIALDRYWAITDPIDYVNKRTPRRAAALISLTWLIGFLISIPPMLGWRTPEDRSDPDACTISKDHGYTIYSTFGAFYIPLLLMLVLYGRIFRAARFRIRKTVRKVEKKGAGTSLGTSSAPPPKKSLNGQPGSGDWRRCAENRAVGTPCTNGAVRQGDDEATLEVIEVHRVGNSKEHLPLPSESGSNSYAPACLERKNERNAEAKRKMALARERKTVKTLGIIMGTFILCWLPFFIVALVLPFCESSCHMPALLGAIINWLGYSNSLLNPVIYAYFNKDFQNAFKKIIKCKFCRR
As to conditions: cited from earlier work.

The target of data set [8] is T3, 5-HT2C receptor (Sus scrofa, UniProt K7GSR7).
T3 sequence (K7GSR7 1-457): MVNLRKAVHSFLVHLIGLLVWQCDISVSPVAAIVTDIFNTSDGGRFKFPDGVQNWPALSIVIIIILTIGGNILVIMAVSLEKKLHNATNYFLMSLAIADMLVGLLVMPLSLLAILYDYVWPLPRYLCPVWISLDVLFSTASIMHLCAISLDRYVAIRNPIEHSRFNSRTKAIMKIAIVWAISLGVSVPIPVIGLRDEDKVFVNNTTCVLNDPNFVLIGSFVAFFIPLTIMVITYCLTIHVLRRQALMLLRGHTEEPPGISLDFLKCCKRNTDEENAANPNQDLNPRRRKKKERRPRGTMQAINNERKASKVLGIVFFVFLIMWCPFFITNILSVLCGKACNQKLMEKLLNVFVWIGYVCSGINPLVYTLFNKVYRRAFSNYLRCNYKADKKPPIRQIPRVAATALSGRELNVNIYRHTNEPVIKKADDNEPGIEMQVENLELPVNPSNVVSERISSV
The following applies: pig; cited from earlier work.

For data set [9], the target named is T4, 5-HT3 receptor (Mus musculus, UniProt P23979).
T4 sequence (P23979 24-489): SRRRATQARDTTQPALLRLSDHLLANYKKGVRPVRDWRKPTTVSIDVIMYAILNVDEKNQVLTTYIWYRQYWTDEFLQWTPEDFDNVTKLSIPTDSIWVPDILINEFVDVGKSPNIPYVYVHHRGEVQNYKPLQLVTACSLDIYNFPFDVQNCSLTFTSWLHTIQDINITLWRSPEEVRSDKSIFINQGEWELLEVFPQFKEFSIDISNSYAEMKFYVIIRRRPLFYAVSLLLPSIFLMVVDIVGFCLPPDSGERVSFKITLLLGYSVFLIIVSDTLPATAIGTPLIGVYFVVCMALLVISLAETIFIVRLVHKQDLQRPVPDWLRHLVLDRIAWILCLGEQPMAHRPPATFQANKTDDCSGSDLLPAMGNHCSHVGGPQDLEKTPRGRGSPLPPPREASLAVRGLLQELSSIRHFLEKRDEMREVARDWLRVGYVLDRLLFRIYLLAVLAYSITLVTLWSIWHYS
The following applies: cited from earlier work.

In data set [10] the target is 5-HT7 receptor (Mus musculus, UniProt P32304). As to conditions: cited from earlier work.
In data set [11] the target is D2-S (short form of D2 receptor) (Homo sapiens, UniProt P14416). As to conditions: cited from earlier work.
Data set [12] addresses D2-L (long form of D2 receptor) (Homo sapiens, UniProt P14416). As to conditions: cited from earlier work.
Data set [13] has as its target T5, D4 dopamine receptor (Homo sapiens, UniProt P21917).
T5 sequence (P21917 1-419): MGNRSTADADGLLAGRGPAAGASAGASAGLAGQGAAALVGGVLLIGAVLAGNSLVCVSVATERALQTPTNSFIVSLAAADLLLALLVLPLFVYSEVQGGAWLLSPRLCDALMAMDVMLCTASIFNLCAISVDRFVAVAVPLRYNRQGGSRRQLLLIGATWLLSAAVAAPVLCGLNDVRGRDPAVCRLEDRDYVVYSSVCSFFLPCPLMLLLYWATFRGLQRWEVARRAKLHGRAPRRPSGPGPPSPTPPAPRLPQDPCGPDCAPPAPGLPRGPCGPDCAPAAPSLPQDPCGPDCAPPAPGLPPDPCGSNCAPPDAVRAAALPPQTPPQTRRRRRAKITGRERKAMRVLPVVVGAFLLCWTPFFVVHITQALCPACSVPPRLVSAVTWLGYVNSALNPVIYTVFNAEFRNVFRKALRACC
The following applies: human; cited from earlier work.

For data set [14], the target named is mACh, muscarinic acetylcholine receptor. The following applies: rat; cited from earlier work.
The target in data set [15] is α1-adrenoceptor. The following applies: species for α1 not given; cited from earlier work.
Data set [16] deals with α2-adrenoceptor. The following applies: cited from earlier work.
Data set [17] deals with sigma, σ receptor. As to conditions: guinea-pig; cited from earlier work.
On the set-up of data set [18]: key: 1-high; 2-medium; 3-low probability. The following applies: Table 4A; grading of probability from literature reports; cited from earlier work. The source holds these as a separate data set.
Details of data set [19]: key to Weight Gain: 1-high; 2-medium; 3-low probability. The following applies: cited from earlier work; for Weight Gain: Table 4A, grading of probability from literature reports.
In data set [20] the target is 5-HT6 receptor (Rattus norvegicus, UniProt P31388). The following applies: cited from earlier work.
For data set [21], the target named is 5-HT7 receptor (Rattus norvegicus, UniProt P32305). As to conditions: cited from earlier work.
The target of data set [22] is D1 dopamine receptor (Homo sapiens, UniProt P21728). The following applies: cited from earlier work.
Data set [23] has as its target D1 dopamine receptor (Rattus norvegicus, UniProt P18901). As to conditions: cited from earlier work.
On the set-up of data set [24]: key: 1-high; 2-medium; 3-low probability. As to conditions: Table 4A; grading of probability from literature reports; cited from earlier work. The source holds these as a separate data set.
The target of data set [25] is α1-adrenoceptor. The following applies: rat; cited from earlier work.
[26] abbreviates: Table 3, calculated from known 5-HT2C/5-HT2A/D2 affinities.

D2 receptor, sequence (P14416 whole entry): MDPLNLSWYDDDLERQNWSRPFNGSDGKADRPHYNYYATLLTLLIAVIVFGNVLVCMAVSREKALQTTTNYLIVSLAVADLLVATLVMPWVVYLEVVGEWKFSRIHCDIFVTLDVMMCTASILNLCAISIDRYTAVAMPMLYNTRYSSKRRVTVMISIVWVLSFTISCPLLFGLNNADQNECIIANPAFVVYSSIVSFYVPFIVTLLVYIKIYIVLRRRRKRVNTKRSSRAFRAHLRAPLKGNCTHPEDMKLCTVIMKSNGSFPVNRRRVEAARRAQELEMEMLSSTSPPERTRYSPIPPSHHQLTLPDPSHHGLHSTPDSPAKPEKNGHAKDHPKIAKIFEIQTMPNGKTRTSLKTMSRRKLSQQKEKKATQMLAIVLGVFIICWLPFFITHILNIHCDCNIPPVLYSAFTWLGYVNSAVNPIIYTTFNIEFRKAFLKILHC
5-HT2A receptor, sequence (P28223 whole entry): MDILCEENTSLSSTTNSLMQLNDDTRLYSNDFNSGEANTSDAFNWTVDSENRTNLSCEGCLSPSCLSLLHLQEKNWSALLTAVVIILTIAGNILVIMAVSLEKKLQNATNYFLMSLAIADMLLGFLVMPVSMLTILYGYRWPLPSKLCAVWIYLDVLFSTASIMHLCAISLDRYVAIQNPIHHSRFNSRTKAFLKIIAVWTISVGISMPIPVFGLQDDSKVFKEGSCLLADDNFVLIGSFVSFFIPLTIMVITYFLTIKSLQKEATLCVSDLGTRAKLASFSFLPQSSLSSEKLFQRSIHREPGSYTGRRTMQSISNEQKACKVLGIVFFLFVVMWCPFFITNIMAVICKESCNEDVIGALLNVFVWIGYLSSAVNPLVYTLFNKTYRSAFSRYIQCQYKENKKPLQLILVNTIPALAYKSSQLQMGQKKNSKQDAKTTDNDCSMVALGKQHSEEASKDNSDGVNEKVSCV
5-HT6 receptor, sequence (P31388 whole entry): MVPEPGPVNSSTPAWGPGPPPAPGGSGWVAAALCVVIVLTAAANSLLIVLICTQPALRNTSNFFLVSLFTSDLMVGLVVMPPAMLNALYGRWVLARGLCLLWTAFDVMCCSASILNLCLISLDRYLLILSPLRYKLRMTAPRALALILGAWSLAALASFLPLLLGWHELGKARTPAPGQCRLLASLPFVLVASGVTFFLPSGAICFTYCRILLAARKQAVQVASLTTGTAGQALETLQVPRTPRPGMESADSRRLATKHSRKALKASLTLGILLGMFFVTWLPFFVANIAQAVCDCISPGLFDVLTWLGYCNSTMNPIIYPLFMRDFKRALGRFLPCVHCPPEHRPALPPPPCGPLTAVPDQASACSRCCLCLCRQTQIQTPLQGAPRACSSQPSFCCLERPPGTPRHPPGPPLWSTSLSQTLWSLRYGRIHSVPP
5-HT7 receptor (Rattus norvegicus, UniProt P32305), sequence (P32305 whole entry): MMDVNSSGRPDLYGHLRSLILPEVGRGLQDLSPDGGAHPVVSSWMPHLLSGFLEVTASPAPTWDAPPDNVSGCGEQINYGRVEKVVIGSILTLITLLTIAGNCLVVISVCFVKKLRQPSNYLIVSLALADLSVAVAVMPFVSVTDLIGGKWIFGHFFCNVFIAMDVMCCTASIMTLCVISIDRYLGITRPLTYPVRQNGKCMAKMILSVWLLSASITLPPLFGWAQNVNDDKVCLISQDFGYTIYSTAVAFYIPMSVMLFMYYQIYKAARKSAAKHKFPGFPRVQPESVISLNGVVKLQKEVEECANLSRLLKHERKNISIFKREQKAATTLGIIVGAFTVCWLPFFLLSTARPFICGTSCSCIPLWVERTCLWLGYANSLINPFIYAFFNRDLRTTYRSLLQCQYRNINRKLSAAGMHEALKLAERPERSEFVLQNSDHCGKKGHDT
5-HT7 receptor (Mus musculus, UniProt P32304), sequence (P32304 whole entry): as the sequence (P32305 whole entry) above, with G27R, P39S, L53P, P279S, S438C counted along it
D2-L (long form of D2 receptor), sequence (P14416 whole entry): as the sequence (P14416 whole entry) above
D2-S (short form of D2 receptor), sequence (P14416 1-414 isoform P14416-2): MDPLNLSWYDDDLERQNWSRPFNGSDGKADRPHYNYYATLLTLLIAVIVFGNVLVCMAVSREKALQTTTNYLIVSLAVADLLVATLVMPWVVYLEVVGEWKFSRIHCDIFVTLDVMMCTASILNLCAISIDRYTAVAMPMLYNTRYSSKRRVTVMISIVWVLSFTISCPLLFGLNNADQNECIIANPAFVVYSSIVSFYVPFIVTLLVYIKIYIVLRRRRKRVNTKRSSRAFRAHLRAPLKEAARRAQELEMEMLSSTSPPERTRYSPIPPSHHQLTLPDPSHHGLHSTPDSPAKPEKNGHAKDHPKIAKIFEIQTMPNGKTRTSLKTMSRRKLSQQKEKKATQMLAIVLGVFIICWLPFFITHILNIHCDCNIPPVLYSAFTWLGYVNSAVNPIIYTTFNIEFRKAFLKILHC
D1 dopamine receptor (Rattus norvegicus, UniProt P18901), sequence (P18901 whole entry): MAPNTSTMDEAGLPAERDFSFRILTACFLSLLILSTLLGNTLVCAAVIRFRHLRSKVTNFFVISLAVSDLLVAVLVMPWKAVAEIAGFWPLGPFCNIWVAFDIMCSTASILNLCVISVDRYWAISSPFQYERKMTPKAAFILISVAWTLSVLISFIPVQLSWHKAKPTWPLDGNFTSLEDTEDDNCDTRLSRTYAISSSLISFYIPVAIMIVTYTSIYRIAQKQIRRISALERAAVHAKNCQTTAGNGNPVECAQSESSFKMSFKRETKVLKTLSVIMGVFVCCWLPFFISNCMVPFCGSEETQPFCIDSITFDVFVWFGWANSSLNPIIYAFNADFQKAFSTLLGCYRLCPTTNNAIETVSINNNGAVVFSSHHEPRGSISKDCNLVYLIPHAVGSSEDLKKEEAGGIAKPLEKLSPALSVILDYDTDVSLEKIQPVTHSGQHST
D1 dopamine receptor (Homo sapiens, UniProt P21728), sequence (P21728 whole entry): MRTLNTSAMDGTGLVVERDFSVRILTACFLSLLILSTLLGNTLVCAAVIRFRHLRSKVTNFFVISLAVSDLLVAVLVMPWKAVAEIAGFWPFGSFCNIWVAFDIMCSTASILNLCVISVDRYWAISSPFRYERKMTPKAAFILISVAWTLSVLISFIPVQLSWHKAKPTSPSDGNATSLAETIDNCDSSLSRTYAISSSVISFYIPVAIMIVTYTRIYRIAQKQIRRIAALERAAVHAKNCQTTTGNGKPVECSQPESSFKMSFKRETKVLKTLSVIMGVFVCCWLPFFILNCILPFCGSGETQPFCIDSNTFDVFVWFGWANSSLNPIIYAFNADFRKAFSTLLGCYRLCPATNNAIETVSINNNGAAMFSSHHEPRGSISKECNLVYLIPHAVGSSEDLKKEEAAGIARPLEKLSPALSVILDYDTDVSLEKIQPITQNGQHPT

Take `CCCN1CCC[C@H]2c3c(OC)cccc3OC[C@@H]21.Cl` (stereo in doubt) [CGS-18102A, 10-methoxy-4-propyl-1,2,3,4a,5,10b-hexahydro-4H-[1]-benzopyrano[3,4-b]pyridine hydrochloride]: the “5-HT2A Affinity” value in [1] is listed as 6.6. The “D2 Affinity” value in data set [2] is given as 7.4. The “Formula I Affinity Ratio” value in data set [3] (setting [26]) is listed as 2.06.

For the compound `CN(C)CCCN1c2ccccc2Sc2ccc(Cl)cc21` [Chlorpromazine], the “α1 affinity value (−log KD)” value in data set [4] is given as 8.6^16.

`CN1CCN(C2=Nc3cc(Cl)ccc3Nc3ccccc32)CC1` [Clozapine]: in [5], the Extra-pyramidal side effects is given as 3.

Consider `CN(C)CCO[C@]1(c2ccccc2)C[C@H]2CC[C@]1(C)C2(C)C.O=C(O)/C=C/C(=O)O` [Deramciclane, (1R,2S,4R)-(−)-2-[2-(N,N-dimethylamino)-ethoxy]-2-phenyl-1,7,7-trimethylbicyclo[2.2.1]heptane], for which, in data set [6], the “5-HT2C Affinity” value is on record as 7.8. In addition, the “5-HT2A Affinity” value in data set [1] is listed as 8. Further, the “D2 Affinity” value in data set [2] was 7. Also, in [3] (setting [26]), the “Formula I Affinity Ratio” value is listed as 2.09.

On to `O=C1NCN(c2ccccc2)C12CCN(CCCC(c1ccc(F)cc1)c1ccc(F)cc1)CC2` [Fluspirilene], for which, in data set [7], the “5-HT1A affinity value (−logKi)” value was 7.3^6. The “5-HT2C affinity value (−logKi)” value in data set [8] was 5.7^6. Besides, the “5-HT3 affinity value (−logKi)” value in data set [9] is <5.3^6. In addition, the “5-HT7 affinity value (−logKi)” value in data set [10] was 7.5^6. The “D2-S affinity value (−logKi)” value in data set [11] is listed as 8.9^6. In addition, in data set [12], the “D2-L affinity value (−logKi)” value is 9.2^6. The “D4 affinity value (−logKi)” value in [13] is listed as 8.4^6. In data set [14], the “mACh affinity value (−logKi)” value is reported as <5.3^6. In addition, in data set [15], the “α1 affinity value (−logKi)” value is listed as 7.0^6. Moreover, the “α2 affinity value (−logKi)” value in data set [16] (species for α2 not stated) is <5.3^6. Moreover, the “sigma affinity value (−logKi)” value in [17] is reported as 6.8^6. In addition, in data set [3] (Table 2, sum of affinity ratios from data of Table 1), the “(2C/2A) + (2C/D2)” value is 1.33.

With `CN(C)CCSc1nc2ccccc2cc1-c1ccccc1` [ICI-169369], in data set [6], the “5-HT2C Affinity” value is recorded as 8. Also, in [1], the “5-HT2A Affinity” value was 7.7. Besides, the “D2 Affinity” value in [2] is 6.5. The “Formula I Affinity Ratio” value in data set [3] (setting [26]) is 2.27.

With `CC(C)N1CCN(CCN2CCC(c3cn(-c4ccc(F)cc4)c4cc(Cl)ccc34)CC2)C1=O` [LU-26042], the “5-HT2C Affinity” value in data set [6] was 7.8. The “5-HT2A Affinity” value in data set [1] is on record as 8.8. For the same compound, the “D2 Affinity” value in data set [2] is listed as 6.9. In [3], the “Formula I Affinity Ratio” value came out at 2.02.

On to `Cc1cc2c(s1)Nc1ccccc1N=C2N1CCN(C)CC1` [Olanzapine], for which the Extra-pyramidal side effects in [5] is reported as 1-2. The Increases prolactin levels in [18] is given as 2. In addition, the “Weight Gain” value in data set [19] is on record as 2. Besides, the “weight gain (in words)” value in data set [19] (text b109, literature reports) is “do cause weight gain”.

Regarding `COc1cc(OC)c(C(=O)CCCCN2CCC3(CC2)NC(=O)NC3=O)cc1NS(=O)(=O)c1ccc(C(F)(F)F)cc1` [RS-102221], the “5-HT2C Affinity” value in data set [6] is 8.2. For the same compound, the “5-HT2A Affinity” value in [1] is given as 5.8. Also, the “Formula I Affinity Ratio” value in data set [3] (setting [26]) was 2.78.

For the compound `CCN1CCCC1CNC(=O)c1cc(S(N)(=O)=O)ccc1OC` (stereo not drawn) [Sulpiride], the “5-HT6 affinity value (−logKi)” value in [20] was <5.3^2. For the same compound, in data set [21], the “5-HT7 affinity value (−logKi)” value was <5.3^2. For the same compound, the “D1 affinity value (−logKi)” value in data set [22] is <5^9.

`CSc1ccc2c(c1)N(CCC1CCCCN1C)c1ccccc1S2` (stereo not drawn) [Thioridazine]: the “D4 affinity value (−logKi)” value in data set [13] is 7.9^12.

Turning to `O=C1Cc2cc(CCN3CCN(c4nsc5ccccc45)CC3)c(Cl)cc2N1` [Ziprasidone], the “5-HT1A affinity value (−logKi)” value in data set [7] was 7.9^6. Further, in data set [8], the “5-HT2C affinity value (−logKi)” value is 7.9^6. In [9], the “5-HT3 affinity value (−logKi)” value is on record as 5.5^6. Also, the “5-HT6 affinity value (−logKi)” value in [20] is listed as 6.9^14. Further, the “5-HT7 affinity value (−logKi)” value in [21] was 7.6^14; in [10], 8.3^6. Besides, the “D1 affinity value (−logKi)” value in data set [23] was 6.3^14. Moreover, the “α2 affinity value (−logKi)” value in [16] (no reference given) is given as <6. In addition, in data set [17], the “sigma affinity value (−logKi)” value was <5.3^6. Besides, the Extra-pyramidal side effects in data set [5] is 2. For the same compound, in data set [24], the Improvement negative symptoms is 2. In [18], the Increases prolactin levels is 3. For the same compound, the “Weight Gain” value in data set [19] is 3. In data set [25], the “α1 affinity value (−logKi)” value is reported as 8.0^14.
